Consider 1 molecule from patent US8691799B2, “Materials and methods for treatment of cancer and identification of anti-cancer compounds” (priority 2001, dated 2014).

For one assay, the system named is B16-F10 tumors. The experiment in a line: Antitumor activity, B16-F10 melanoma in C57 black mice. Conditions: 1 mg/Kg/day. Type of assay: in vivo. An excerpt: (§1) Antitumor Activity in the Nude Mouse Tumor Xenograft Model. Nude mice and C57 BL-6 black mice (National Cancer Institute, Bethesda, Md.) were maintained in accordance with the Institutional Animal Care and Use Committee (IACUC) procedures and guidelines. v-Src- and oncogenic H-Ras-transformed NIH 3T3, A549, MDA-MB-468 and Calu-1 cells were harvested, resuspended in PBS and injected s.c. into the right and left flank (10×10^6 cells per flank) of 8 week old female nude mice as reported previously (Sun, J. et al. Cancer Res., 1999, 59:4919-4926). Similarly, murine B16-F10 Melanoma cells were injected s.c. into the right and left flank (10^6 cells per flank) of C57 black mice. When tumors reached about 150 mm^3, animals were randomized (five animals per group; two tumors per animal) and dosed i.p. with 0.2 ml once daily. Control animals received DMSO (20%) vehicle whereas treated animals were injected with JSI-124 (1 mg/kg/day) in 20% DMSO in water. The tumor volumes were determined by measuring the length (l) and the width (w) and calculating the volume (V=1w^2/2) as described previously (Sun, J. et al. Cancer Res., 1999, 59:4919-4926). Statistical significance between control and treated animals were evaluated by using Student's t-test. […] Percent surviving mice was determined by monitoring the death of mice until all mice died. […]

A further assay concerns phospho-Erk1/2. The assay is described as follows: Western blotting for phospho-Erk1/2. Conditions: A549 and MDA-MB-468 cells, up to 10 μM. Type of assay: cell-based, human. As to the method:
Western Blotting. Treated cell samples were lysed in 30 mM Hepes, pH 7.5, 10 mM NaCl, 5 mM MgCl2, 25 mM NaF, 1 mM EGTA, 1% Triton-X-100, 10% glycerol, 2 mM sodium orthovanadate, 10 μg/ml aprotinin, 10 μg/ml soybean trypsin inhibitor, 25 μg/ml leupeptin, 2 mM PMSF, and 6.4 mg/ml p-nitrophenylphosphate. Phospho-STAT3, phospho-AKT, phospho-MEK, and phospho-p42/p44 MAPK antibodies were obtained from Cell Signaling Technologies, Cambridge, Mass. Antibodies to STAT3, JAK2, and phospho-INK were purchased from Santa Cruz Biotechnology, Santa Cruz, Calif. Phospho-JAK2 antibody came from Upstate Biotechnology, Lake Placid, N.Y. Membranes were blocked in either 5% milk in PBS, pH 7.4, containing 0.1% Tween-20 (PBS-T) or 1% BSA in TBS, pH 7.5, containing 0.1% Tween-20 (TBS-T). Phospho-specific antibodies (excepting P-MAPK and P-JNK) were incubated in 1% BSA in TBS-T while all other antibodies were diluted in 5% milk in PBS-T for either 2 hr at room temperature or overnight at 4° C. HRP-conjugated secondary antibodies (Jackson ImmunoResearch) were diluted in 5% milk in either PBS-T or TBS-T at 1:1000 dilution for one hour at room temperature. Western blots were visualized using enhanced chemiluminescence as described previously (Blaskovich, M. A. et al. Nat. Biotechnol., 2000, 18:1065-1070).
A general note: A western blot detects proteins with antibodies after separation by electrophoresis.

Assay [1] relates to STAT3 DNA-binding activity. The assay is described as follows: Electrophoretic mobility shift assay (EMSA) of nuclear extracts. It counts as cell-based. Conditions: nuclear extracts from v-Src/NIH 3T3 and A549 cells. As to the method:
Nuclear Extract Preparation and Gel Shift Assay. Nuclear extract preparation and electrophoretic mobility shift assay were carried out as previously described (Turkson, J. et al. Mol. Cell Biol., 1999, 19:7519-7528). The ^32P-radiolabeled oligonucleotide probe is hSIE (high affinity sis-inducible element, m67 variant, 5′-[…]-3′) (SEQ ID NO. 1) that binds STAT1 and STAT3.

Another assay deals with T1, EGFR (Homo sapiens, UniProt P00533).
T1 construct: EGFR tyrosine phosphorylation in the breast cell line MCF-10A; endogenous in cells; host or cells: MCF-10A; also EGFR-overexpressing NIH 3T3
The assay is described as follows: EGF-stimulation of EGFR tyrosine phosphorylation. It counts as cell-based. Conditions: MCF-10A and EGFR-overexpressing NIH 3T3 cells (data not shown).

In the next assay the test system is MDA-MB-468 tumors. The experiment in a line: Antitumor activity, MDA-MB-468 xenograft in nude mice. Conditions: 1 mg/kg/day i.p. Type of assay: in vivo.
Text: as §1

Entries after “also recorded” stand apart in the source; their conditions may differ.

T1 sequence (P00533 25-1210): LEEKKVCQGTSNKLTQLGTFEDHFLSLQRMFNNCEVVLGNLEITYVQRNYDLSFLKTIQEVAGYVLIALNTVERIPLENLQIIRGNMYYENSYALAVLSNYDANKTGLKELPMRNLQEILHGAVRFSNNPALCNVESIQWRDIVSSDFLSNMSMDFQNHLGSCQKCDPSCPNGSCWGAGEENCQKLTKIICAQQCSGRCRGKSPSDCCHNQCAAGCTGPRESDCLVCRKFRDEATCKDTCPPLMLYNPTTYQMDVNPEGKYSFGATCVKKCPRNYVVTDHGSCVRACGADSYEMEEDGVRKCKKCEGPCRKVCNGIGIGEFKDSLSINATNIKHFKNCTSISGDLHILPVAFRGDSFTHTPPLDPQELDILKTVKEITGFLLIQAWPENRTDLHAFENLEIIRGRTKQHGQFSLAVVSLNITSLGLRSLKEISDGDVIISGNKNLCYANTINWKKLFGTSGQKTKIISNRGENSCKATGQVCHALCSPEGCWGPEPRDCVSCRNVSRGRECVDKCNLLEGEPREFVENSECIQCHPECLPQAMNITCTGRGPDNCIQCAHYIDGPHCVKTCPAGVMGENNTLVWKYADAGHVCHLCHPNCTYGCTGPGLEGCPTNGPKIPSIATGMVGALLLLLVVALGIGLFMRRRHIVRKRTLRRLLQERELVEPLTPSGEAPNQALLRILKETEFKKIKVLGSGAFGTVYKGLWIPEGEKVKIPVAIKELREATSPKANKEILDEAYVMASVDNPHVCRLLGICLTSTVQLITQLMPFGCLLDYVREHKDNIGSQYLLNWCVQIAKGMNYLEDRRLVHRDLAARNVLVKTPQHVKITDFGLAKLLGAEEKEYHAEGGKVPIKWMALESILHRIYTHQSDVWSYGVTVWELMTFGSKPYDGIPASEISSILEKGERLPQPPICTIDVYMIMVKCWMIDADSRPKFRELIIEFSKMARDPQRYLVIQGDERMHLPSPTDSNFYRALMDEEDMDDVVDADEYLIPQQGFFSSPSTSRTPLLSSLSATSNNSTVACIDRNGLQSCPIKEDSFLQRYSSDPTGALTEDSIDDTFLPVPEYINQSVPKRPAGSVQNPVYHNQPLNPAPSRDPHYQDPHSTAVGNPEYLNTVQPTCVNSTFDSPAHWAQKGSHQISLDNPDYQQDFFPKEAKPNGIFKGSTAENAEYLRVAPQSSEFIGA

Turning to `CC(C)(O)/C=C/C(=O)[C@](C)(O)[C@H]1[C@H](O)C[C@@]2(C)[C@@H]3CC=C4[C@@H](C=C(O)C(=O)C4(C)C)[C@]3(C)C(=O)C[C@]12C` [JSI-124, cucurbitacin I], in the assay on B16-F10 tumors, the “average size of B16-F10 tumors” value is on record as 588±94 and the “inhibition of B16-F10 tumor growth” value is listed as 56%. Also, the phospho-Erk1/2 levels entry in the assay with phospho-Erk1/2 is reported as “no inhibitory effect; also recorded: increased the levels of phosphorylation”. Besides, in assay [1], the “STAT3 DNA-binding activity (EMSA)” value is “greatly reduced”. The “EGF-stimulated EGFR tyrosine phosphorylation” value on EGFR is recorded as “inhibited only minimally”. For the same molecule, the “inhibition of MDA-MB-468 tumor growth” value in the assay with MDA-MB-468 tumors is 86%.
